Experimental data reported in patent publication US20260174739A1 (priority 2022, published 2026).
Counter-ions that a name gives are not always drawn. Like-named read-outs stand apart in the source and are kept apart here.

Assays:
human NET = human NET (Homo sapiens, UniProt P23975); test: NET transporter inhibitory activity test (neurotransmitter transporter uptake assay kit); type: cell-based
Procedure: (§1) Transporter inhibition of human DAT and NET expressed in HEK-293 cells was assessed using a neurotransmitter transporter uptake assay kit. The assay was performed as described in the kit instructions, using centanafadine as a positive control. The specific procedures were as follows:
First day cell plating: HEK 293T cells were digested with trypsin, centrifuged, resuspended with a medium, counted, and seeded into a 6 cm culture dish at a density of 3×10^6 cells/well.
Second day cell transfection: HEK 293T cells were subjected to medium exchange, and then A, B tubes were prepared for NET-pcDNA5/FRT plasmid to be transfected. 200 μL of Opti-MEM was added to tube A, and 10 μL of Lipofectamine™ 3000 was added. The mixture was mixed well. 200 μL of Opti-MEM was added to tube B, and 5 μg of NET-pcDNA5/FRT plasmid was added. The mixture was mixed well, and then 10 μL of P3000™ was added to tube B. The mixture was mixed well (plasmid to transfection reagent ratio 1 μg:2 μL). The diluted solution of tube A was added to the diluted solution of tube B. The mixture was mixed well, and incubated at room temperature for 15 min. Finally, the mixture was gently added to the cells that had been subjected to medium exchange, gently shaken to mix, and then incubated overnight in an incubator at 37° C. with a carbon dioxide concentration of 5%. The cells were used for compound functional activity assays 18-20 h after transfection.
• a) After overnight transfection of NET cells, the cells were digested with trypsin, resuspended with DMEM+10% Dialyzed FBS medium, seeded into a 384-well plate at 20000 cells/well, and incubated overnight. Stably transfected DAT cells were digested with trypsin, resuspended with DMEM+10% Dialyzed FBS medium, seeded into a 384-well plate at 2500 cells/well, and incubated overnight. • b) 1× Assay buffer was prepared according to the kit instruction for later use; the positive compound and the test compound were serially diluted with DMSO, and then diluted to 2× with 1× assay buffer. • c) The medium was removed from the 384-well plate by centrifugation. • d) 16 μL of the compound prepared in step b) was added to corresponding experimental wells, wherein an initial concentration of 2× positive control compound was added to the positive control well, and 0.2% DMSO buffer was added to the negative control well. After centrifuging, the plate was incubated at 37° C. for 30 min. • e) A detection reagent was prepared using 1×HBSS, and 16 μL of the detection reagent was added to each well. After centrifuging, the plate was incubated at 37° C. for 60 min. • f) After incubation, the reading at 510 nm under the excitation of the detection wavelength of 425 nm was measured using a microplate reader. Curve fitting and IC50 calculation were performed using GraphPad Prism software nonlinear regression method.

human DAT = human DAT (Homo sapiens, UniProt Q01959); test: DAT transporter inhibitory activity test (neurotransmitter transporter uptake assay kit); type: cell-based
Procedure: as §1
DAT stably transfected culture: The DAT-HEK cell line was cultured in DMEM medium containing 10% fetal bovine serum and 0.2 mg/mL hygromycin B at 37° C. with 5% carbon dioxide.
DAT stably transfected cell passage: the old medium was removed, and the cells were washed once with PBS; 1 mL of TrypLE™ Express solution was then added, and the cells were incubated at 37° C. for about 2 min. When the cells were detached from the bottom of the dish, about 5 mL of complete medium pre-heated at 37° C. was added. The cell suspension was gently pipetted to separate the aggregated cells. The cell suspension was transferred to a sterile centrifuge tube and centrifuged at 1000 rpm for 5 min. In order to maintain the physiological activity of the cells, the experimental cell confluence was controlled at about 80%.
• a) After overnight transfection of NET cells, the cells were digested with trypsin, resuspended with DMEM+10% Dialyzed FBS medium, seeded into a 384-well plate at 20000 cells/well, and incubated overnight. […] After centrifuging, the plate was incubated at 37° C. for 30 min. • e) A detection reagent was prepared using 1×HBSS, and 16 μL of the detection reagent was added to each well. […] Curve fitting and IC50 calculation were performed using GraphPad Prism software nonlinear regression method.

[1] = In vivo metabolism (pharmacokinetic) experiment in mice; design: species or system male ICR mice; settings: mouse, male ICR mice; for bioavailability: oral 10 mg/kg vs iv 2.5 mg/kg, read-out: F (%); for AUC(0-inf) / Cmax / half-life: oral 10 mg/kg, plasma; for AUC(0-inf): read-out: AUC0-inf(po); for Cmax: read-out: Cmax (po); for half-life: read-out: T1/2 (po) (converted)
Procedure: Animal: male ICR mice. The animals were randomly assigned to treatment groups and fasted for 12 h prior to dosing.
Drug: the compound of the present disclosure was dissolved in a vehicle (5% DMSO+5% Solutol HS15+90% saline). For intravenous (iv) administration, the dose was 2.5 mg/kg with a dosing volume of 5 mL/kg; for oral (po) administration, the dose was 10 mg/kg with a dosing volume of 10 mL/kg body weight. Sample collection and bioanalysis: blood was collected from the orbit of the mice and added into EP tubes containing heparin sodium at 0.083, 0.25, 0.5, 1, 2, 4, 6, and 8 h (n=3 for each time point). Immediately after blood collection, the mice were euthanized by cervical dislocation, and mouse brains were collected at the corresponding time points. All samples were promptly collected, snap-frozen, and stored at −70° C. for later use. Plasma samples were obtained by centrifugation of whole blood. 10 μL of plasma was mixed with 190 μL of internal standard solution (20 ng/ml in acetonitrile containing 0.1% formic acid). After mixing, the samples were centrifuged at 13000 rpm for 10 min, and 120 μL of the supernatant was separately collected. Depending on the sensitivity of the compound, 0.5-10 μL of the supernatant was taken for drug analysis using the appropriate liquid chromatography-tandem mass spectrometry (LC-MS/MS). Each analyte was calibrated and identified using standards. According to brain tissue: the extract (50% acetonitrile/water) at a ratio of 1 g:8 mL was homogenized for 2 min using five 3 mm magnetic beads in an OMNI Bead Ruptor 24 Elite homogenizer at 3.2 m/s and centrifuged at 4° C. and 3000 g for 3 min. 50 μL of the supernatant was mixed with 200 μL of internal standard solution (20 ng/mL in 80% acetonitrile/water). After mixing, the samples were centrifuged at 13,000 rpm for 10 min, and 120 μL of the supernatant was separately collected. Depending on the sensitivity of the compound, 0.5-10 μL of the supernatant was taken for drug analysis using the appropriate LC-MS/MS method. Each analyte was calibrated and identified using standards.
Data analysis: drug concentrations below the lower limit of quantification (LLOQ) were considered zero. Pharmacokinetic parameters were analyzed using PK Solver with a non-compartmental, bolus injection or extravascular input analysis models. Data points below the LLOQ were excluded to improve the efficacy of t1/2 calculation.

male C57 mice = test: Forced swim test; type: in vivo; settings: intraperitoneal injection, test 0.5 h after dosing, motionless time in last 4 min
Procedure: Drug: the compound of the present disclosure was first uniformly mixed with 5% DMSO and 5% Solutol® HS 15. hysiological saline was then added to make up 90% of the final volume. The mixture was prepared at an appropriate concentration immediately before use.
Animal: male C57 mice, about 22 g. The animals were randomly divided into a blank control group and test drug groups, 8 animals per group, and mice in each group were administered either the vehicle or the test compound via intraperitoneal injection.
Experimental steps: the mice were subjected to forced swim test 0.5 h after dosing. The water level in the forced swim device was 45 cm, and the water temperature was 25° C. The mice were placed in an experimental room to adapt to the environment for 1 h before the experiment began. When the experiment began, the mice were placed in the device for 6 min, and the whole process was recorded by a camera. Only the motionless time of the mice in the last 4 min was counted when data were analyzed.

[2] = Human liver microsome assay (metabolic stability); type: in vitro ADME; settings: pH 7.4
Procedure: Control and reagent: NADPH, magnesium chloride, testosterone, phosphate buffer, etc. were supplied by Dalian Meilun Biotech Co., Ltd., etc.
Liver microsome: human liver microsomes were supplied by Corning.
Experimental step: the liver microsome incubations were performed in 96-well plates, each incubation system having a volume of 200 μL, in a medium of 0.1 M phosphate buffer (pH 7.4), including liver microsomes at a final concentration of 0.2 mg/mL, 1 μM of the test drug, 3.0 mM MgCl2, 0.01% DMSO, 0.5% acetonitrile, and 2.0 mM NADPH. The incubation system described above without NADPH was pre-incubated at 37° C. for 5 min using a rotary water bath constant temperature oscillator. NADPH was added to initiate the reaction. At 0, 5, 15, 30, and 60 min, 20 μL of the sample was taken out from the incubation system after mixing well and added to 200 μL of acetonitrile containing an internal standard to terminate the reaction. Under the same conditions, 1 μM testosterone was used as a positive control to assess the reliability of the reaction system. For the negative control, phosphate buffer was used instead of NADPH, and all other incubation conditions remained the same. At 60 min, 20 μL of the sample was taken out after mixing well and added to 200 μL of termination solution containing an internal standard to terminate the reaction.
Sample analysis: After treatments such as precipitated protein extraction with an organic solvent, the incubated sample was analyzed using liquid chromatography-tandem mass spectrometry (LC-MS/MS). The concentrations of the test drug or the positive control drug in the sample were semi-quantified. The concentration in the sample was expressed using the ratio of the analyte peak area to the internal standard peak area.
Data processing and analysis: A standard curve of the In residual rate of the drug in the incubation system with respect to the incubation time was plotted by using Excel software, linear regression was performed to obtain a slope k, and the half-life T1/2 (min) and the intrinsic clearance CLint (mL/min/kg) were calculated according to the following formula: […]

human SERT = human SERT (Homo sapiens, UniProt P31645); test: Inhibitory activity assay against 5-HT transporter (neurotransmitter transporter uptake assay kit); type: cell-based; settings: HEK-293 cells overexpressing human SERT; read-out: 5-HTT (IC50)
Procedure: In HEK-293 cells overexpressing human SERT, the transporter inhibitory effect of the test compound on human SERT was assayed using a Neurotransmitter transporter uptake assay kit (Molecular devices).

[3] = human liver microsomes 0.2 mg/mL, 1 μM test drug, NADPH, 37° C., read-out: Half-life (t1/2, min)
[4] = human liver microsomes 0.2 mg/mL, 1 μM test drug, NADPH, 37° C., read-out: Intrinsic clearance (Clint, mL/min/kg)

Sequence of human NET (P23975 whole entry): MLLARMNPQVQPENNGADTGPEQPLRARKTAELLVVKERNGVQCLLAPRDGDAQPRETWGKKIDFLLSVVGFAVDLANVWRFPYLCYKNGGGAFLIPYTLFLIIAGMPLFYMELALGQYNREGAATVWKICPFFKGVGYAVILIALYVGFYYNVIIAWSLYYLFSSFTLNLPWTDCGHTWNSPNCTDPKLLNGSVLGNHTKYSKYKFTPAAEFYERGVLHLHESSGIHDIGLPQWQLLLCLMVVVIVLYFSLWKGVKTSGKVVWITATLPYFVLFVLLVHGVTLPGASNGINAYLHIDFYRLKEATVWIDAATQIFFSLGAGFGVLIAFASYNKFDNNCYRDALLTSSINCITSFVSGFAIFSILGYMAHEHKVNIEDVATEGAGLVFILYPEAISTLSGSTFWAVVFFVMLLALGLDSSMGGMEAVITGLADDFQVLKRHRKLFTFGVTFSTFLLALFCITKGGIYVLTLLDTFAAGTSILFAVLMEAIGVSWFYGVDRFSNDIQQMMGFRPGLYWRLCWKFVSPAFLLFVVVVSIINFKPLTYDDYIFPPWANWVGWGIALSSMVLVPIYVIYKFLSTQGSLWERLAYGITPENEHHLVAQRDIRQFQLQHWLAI
Sequence of human DAT (Q01959 whole entry): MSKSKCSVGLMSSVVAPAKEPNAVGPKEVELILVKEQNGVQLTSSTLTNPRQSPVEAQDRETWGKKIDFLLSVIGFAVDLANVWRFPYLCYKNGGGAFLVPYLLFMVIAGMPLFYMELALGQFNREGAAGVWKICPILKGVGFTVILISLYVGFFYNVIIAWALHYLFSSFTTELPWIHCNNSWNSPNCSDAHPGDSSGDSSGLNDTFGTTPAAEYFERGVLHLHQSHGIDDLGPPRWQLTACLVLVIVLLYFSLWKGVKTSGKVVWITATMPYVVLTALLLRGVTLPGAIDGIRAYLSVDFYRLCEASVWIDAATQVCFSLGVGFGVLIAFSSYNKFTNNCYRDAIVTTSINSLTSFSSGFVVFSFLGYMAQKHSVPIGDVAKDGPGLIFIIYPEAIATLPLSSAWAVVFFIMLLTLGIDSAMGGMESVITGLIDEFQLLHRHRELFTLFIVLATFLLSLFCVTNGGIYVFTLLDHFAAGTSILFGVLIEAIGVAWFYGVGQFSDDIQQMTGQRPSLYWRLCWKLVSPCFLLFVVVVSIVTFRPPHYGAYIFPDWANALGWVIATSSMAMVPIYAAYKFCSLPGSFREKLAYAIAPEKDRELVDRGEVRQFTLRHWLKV
Sequence of human SERT (P31645 whole entry): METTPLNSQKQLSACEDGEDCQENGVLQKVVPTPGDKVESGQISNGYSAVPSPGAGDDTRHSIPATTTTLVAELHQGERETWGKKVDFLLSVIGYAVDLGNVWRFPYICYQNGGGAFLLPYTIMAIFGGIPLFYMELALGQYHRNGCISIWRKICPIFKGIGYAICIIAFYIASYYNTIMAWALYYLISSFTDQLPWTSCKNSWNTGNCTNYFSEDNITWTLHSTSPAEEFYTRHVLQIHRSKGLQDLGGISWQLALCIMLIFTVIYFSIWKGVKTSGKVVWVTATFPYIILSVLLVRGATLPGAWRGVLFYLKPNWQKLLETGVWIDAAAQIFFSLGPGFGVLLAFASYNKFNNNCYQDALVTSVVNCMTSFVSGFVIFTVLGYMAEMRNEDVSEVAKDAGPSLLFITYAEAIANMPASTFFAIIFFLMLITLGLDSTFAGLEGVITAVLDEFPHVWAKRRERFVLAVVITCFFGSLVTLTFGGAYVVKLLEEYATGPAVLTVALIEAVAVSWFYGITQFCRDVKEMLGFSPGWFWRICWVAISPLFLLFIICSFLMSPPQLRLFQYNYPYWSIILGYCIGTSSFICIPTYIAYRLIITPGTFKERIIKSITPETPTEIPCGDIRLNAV

## c1ccc2cc([C@]34CNC[C@H]3C4)ccc2c1 [Centanafadine, centanafadine, reference compound]
Human NET
  IC50: 30 nM
Human DAT
  IC50: 80 nM

## Nc1nc2c(s1)CC(NCC1CC1)(c1ccccc1)CC2 (racemic) [rac-A67, 6-phenyl-N^6-(cyclopropylmethyl)-4,5,6,7-tetrahydrobenzothiazole-2,6-diamine]
Human NET
  IC50: 3000 nM

## NC1(c2ccccc2)CCc2ncsc2C1 (racemic) [rac-A14, 6-phenyl-4,5,6,7-tetrahydrobenzothiazol-6-amine]
[1]; male, ICR, po, 10 mg/kg
  bioavailability: 105%
  AUC(0-inf): 2900 ng·h/mL
  Cmax: 1430 ng/mL
  half-life: 1.5 h
Male C57 mice
  Effective dose: 3 mg/kg
[2]; [3]
  half-life at 1 μM: > 120 min

## CNC1(c2ccccc2)CCCc2sc(N)nc21 (racemic) [rac-A38, N^4-methyl-4-phenyl-4,5,6,7-tetrahydrobenzothiazole-2,4-diamine]
[1]; male, ICR, po, 10 mg/kg
  bioavailability: 71%
  AUC(0-inf): 1620 ng·h/mL
  Cmax: 360 ng/mL
  half-life: 1.8 h
Male C57 mice
  Effective dose: 3 mg/kg
[2]; [3]
  half-life at 1 μM: 98 min
[2]; [4]
  CLint scaled at 1 μM: 41.3 mL/min/kg

## NC1(c2ccccc2)CCCc2sccc21 (racemic) [rac-A16, 4-phenyl-4,5,6,7-tetrahydrobenzothiophen-4-amine]
[1]
  bioavailability: 41%
  AUC(0-inf): 501 ng·h/mL
  Cmax: 252 ng/mL
  half-life: 1.76 h
Male C57 mice
  Effective dose: 3 mg/kg
[2]; [3]
  half-life at 1 μM: 42 min
[2]; [4]
  CLint scaled at 1 μM: 95.5 mL/min/kg

## Nc1nc2c(s1)C[C@](c1ccccc1)(N1CCCC1)CC2 [R-A50]
Human NET; NET transiently transfected HEK 293T cells, read-out: NET (IC50)
  IC50: 200 nM

## NC1(c2ccccc2)CCc2[nH]ncc2C1 (racemic) [rac-A65, 5-phenyl-4,5,6,7-tetrahydro-1H-indazol-5-amine]
Human NET
  IC50: 7000 nM
Human SERT
  IC50: 1900 nM

## Nc1nc2c(s1)CC(N)(c1ccccc1)CC2 (racemic) [rac-A1, 6-phenyl-4,5,6,7-tetrahydrobenzothiazole-2,6-diamine]
[1]; male, ICR, po, 10 mg/kg
  bioavailability: 132%
  AUC(0-inf): 2830 ng·h/mL
  Cmax: 413 ng/mL
  half-life: 4.68 h
Male C57 mice
  Effective dose: 1 mg/kg

## c1ccc(C2(N3CCCCC3)CCc3[nH]ncc3C2)cc1 (racemic) [rac-A70, 5-phenyl-5-(piperidin-1-yl)-4,5,6,7-tetrahydro-1H-indazole]
Male C57 mice
  Effective dose: 1 mg/kg
[2]; [3]
  half-life at 1 μM: > 120 min

## CNC1(c2ccc(C(F)(F)F)cc2)CCc2nc(N)sc2C1 (racemic) [rac-A96, 6-(4-trifluoromethylphenyl)-N^6-methyl-4,5,6,7-tetrahydrobenzothiazole-2,6-diamine hydrobromide]
Human NET
  IC50: 14000 nM

## c1ccc(C2(N3CCCC3)CCc3[nH]ncc3C2)cc1 (racemic) [rac-A12, 5-phenyl-5-(pyrrolidin-1-yl)-4,5,6,7-tetrahydro-1H-indazole]
Male C57 mice
  Effective dose: 1 mg/kg
[2]; human, microsomes
  CLint scaled at 1 μM: 12.4 mL/min/kg
  half-life at 1 μM: 327 min
